Each compound was assayed against eIF-2-alpha kinase GCN2 (Homo sapiens, UniProt Q9P2K8) (assay: Enzyme Inhibition Assay: An assay buffer containing GCN2 kinase and (RS)7 was prepared. 4.7 μL of this stock solution was placed per well of a black, low volume, 384-well microtitre plate (e.g. catalogue number 3676, Corning Inc., NY). To this was added […] containing serial dilutions of the test compound (typical final concentrations of test compound were 0 to 8 μM). The plate was incubated for 10 minutes at 25° C. prior to the addition of 4.7 μL of ATP stock buffer to initiate the enzyme reaction. The reaction was allowed to proceed for 1 hour at 25° C., prior to the addition of 10 μL detection buffer (consisting of appropriate concentrations of ADP2 antibody and ADP Alexa633 tracer in 1× stop and detect buffer as supplied by BellBrook Labs). The reaction was left to incubate for 1 hour at 25° C., prior to measuring the fluorescence polarisation signal (mP) in each well using a PHERAstar FS reader (BMG Labtech, Germany).).
Chain of eIF-2-alpha kinase GCN2 (Q9P2K8 whole entry): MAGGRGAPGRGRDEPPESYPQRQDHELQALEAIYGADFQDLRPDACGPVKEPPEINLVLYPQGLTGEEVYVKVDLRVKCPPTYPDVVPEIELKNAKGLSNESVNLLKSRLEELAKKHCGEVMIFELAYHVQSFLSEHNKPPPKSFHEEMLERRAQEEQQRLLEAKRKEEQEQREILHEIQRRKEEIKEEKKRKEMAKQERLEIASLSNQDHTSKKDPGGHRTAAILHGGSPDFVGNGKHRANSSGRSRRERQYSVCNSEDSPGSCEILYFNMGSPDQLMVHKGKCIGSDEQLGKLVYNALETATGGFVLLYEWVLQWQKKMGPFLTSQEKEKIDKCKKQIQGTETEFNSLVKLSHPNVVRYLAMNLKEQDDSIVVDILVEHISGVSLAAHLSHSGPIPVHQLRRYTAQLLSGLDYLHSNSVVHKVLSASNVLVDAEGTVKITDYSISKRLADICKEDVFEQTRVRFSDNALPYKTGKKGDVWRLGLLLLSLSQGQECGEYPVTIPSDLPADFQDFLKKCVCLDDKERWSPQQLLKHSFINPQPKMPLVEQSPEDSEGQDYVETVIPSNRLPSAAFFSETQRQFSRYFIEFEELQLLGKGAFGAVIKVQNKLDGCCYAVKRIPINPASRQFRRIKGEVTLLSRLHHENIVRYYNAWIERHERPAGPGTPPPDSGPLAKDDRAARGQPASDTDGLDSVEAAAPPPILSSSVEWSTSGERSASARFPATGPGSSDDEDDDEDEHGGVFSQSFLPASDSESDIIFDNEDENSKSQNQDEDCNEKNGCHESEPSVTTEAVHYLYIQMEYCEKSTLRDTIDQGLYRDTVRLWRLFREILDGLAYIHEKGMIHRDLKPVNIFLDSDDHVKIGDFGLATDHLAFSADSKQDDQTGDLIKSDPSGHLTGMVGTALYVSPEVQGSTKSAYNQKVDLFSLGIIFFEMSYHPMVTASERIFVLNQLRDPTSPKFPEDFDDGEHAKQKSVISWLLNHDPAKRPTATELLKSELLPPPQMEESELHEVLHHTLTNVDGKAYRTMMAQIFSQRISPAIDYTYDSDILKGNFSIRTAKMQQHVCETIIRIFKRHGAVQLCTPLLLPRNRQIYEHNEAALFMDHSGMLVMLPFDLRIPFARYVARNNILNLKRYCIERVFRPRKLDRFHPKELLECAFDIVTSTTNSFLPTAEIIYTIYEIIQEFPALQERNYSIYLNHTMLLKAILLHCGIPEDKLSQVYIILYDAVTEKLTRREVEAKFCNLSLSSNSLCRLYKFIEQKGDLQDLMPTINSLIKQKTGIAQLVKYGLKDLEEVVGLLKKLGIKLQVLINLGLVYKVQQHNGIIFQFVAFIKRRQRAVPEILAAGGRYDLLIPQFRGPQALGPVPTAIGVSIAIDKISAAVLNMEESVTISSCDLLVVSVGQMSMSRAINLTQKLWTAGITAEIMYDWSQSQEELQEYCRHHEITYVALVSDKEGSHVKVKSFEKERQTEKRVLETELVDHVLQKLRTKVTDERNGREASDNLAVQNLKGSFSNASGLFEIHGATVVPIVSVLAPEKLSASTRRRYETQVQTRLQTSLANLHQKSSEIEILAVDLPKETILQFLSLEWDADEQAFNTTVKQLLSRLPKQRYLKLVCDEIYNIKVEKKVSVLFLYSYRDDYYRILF

| Ki [nM] | SMILES |
| --- | --- |
| < 10 | C[C@H]1C[C@@H](c2cn[nH]c2)CN(c2nccc(-c3cnc4ccc(C(F)(F)F)cn34)n2)C1 (mixture of isomers) |
| < 10 | C[C@@H]1CN(c2nccc(-c3cnc4ccc(C(F)(F)F)cn34)n2)C[C@H](c2cn[nH]c2)O1 (relative stereo) |

Second part, the compound before the results:

| SMILES | Ki [nM] |
| --- | --- |
| Cc1n[nH]cc1[C@H]1CN(c2ccnc(-c3cnc4ccc(C(F)(F)F)cn34)n2)C[C@@H](C)O1 (relative stereo) | < 10 |
| Cc1[nH]ncc1[C@H]1CN(c2nccc(-c3cnc4ccc(C(F)(F)F)cn34)n2)C[C@@H](C)O1 (relative stereo) | < 10 |
| Cc1[nH]ncc1[C@@H]1CN(c2nccc(-c3cnc4ccc(C(F)(F)F)cn34)n2)C[C@H](C)O1 | < 10 |
